Earlier results in US6620432B2, “Phenytoin sodium pharmaceutical compositions” (Mylan Pharmaceuticals Inc., priority 1999, dated 2003).
Where a name gives a salt, the structure may show the parent alone.

Conditions: general statement, no test described

SMILES	Solubility in water
O=C1NC(=O)C(c2ccccc2)(c2ccccc2)N1 [Phenytoin sodium, monosodium salt of 5,5-diphenyl hydantoinate]	highly water soluble
O=C1NC(=O)C(c2ccccc2)(c2ccccc2)N1 [phenytoin]	water insoluble
